Entries after “also recorded” stand apart in the source; their conditions may differ. Like-named read-outs stand apart in the source and are kept apart here.
How the values were obtained:
acute wounds = conditions: synthetic LL-37, repeated topical administration in acute wounds; cited from earlier work
[1] = system: HTH VLUs (hard-to-heal venous leg ulcers); assay: Double-blind, randomised, placebo-controlled Phase I/II safety and pilot-dose response study of LL-37 in HTH VLUs; format: in vivo, human; conditions: for Estimated healing rate constant (cm^2/day) Mean (95% C.I.): 25 μL/cm^2 topical every third day, 4 weeks, exponential decay model, placebo 0.007
Experimental: A double-blind, randomised, placebo-controlled, Phase I/II safety and pilot-dose response study was conducted on human subjects. The first subject was enrolled in August 2012 and the last subject completed in April 2013.
Study subjects comprised either male subjects of at least 18 years of age, or post-menopausal or clinically sterile women, with VLUs or combined venous-arterial ulcers with a predominant venous component.
Target wounds with an area greater than 30 cm^2 and less than 2 cm^2 were excluded initially. However, in order to increase the inclusion rate and decrease the total study time, criteria were amended after randomisation of 21 subjects, to exclude areas greater than 40 cm^2 and less than 1 cm^2. If an eligible subject had more than one wound satisfying the entry criteria, the investigator identified the wound with the most appropriate size, shape and localisation as target wound. Only one wound per subject was treated in the study.
During the 3-week run-in period, subjects received, every third day (±1) and not more than two times per week, six applications (in total) of a placebo preparation (see below) in combination with standard compression bandaging (as defined by the Swedish MPA), comprising elastic bandaging and appropriate dressing to control wound exudation.
If the ulcerative area decrease was greater than between 7% and 13% (depending on size) per week relative to the start of the run-in period, the ulcer was not defined as HTH for the purposes of this study. In such cases, subjects were excluded from the study and the outcome was recorded as screening failure.
After a run-in period, 34 eligible subjects underwent baseline assessments before randomisation to receive active treatment (one of three treatment strengths) or placebo.
Following the above run-in period, a 4-week treatment period was initiated, including 8 visits, an end-of-treatment visit 3 days (±1 day) after the last treatment, and a follow-up visit after an additional 4 weeks (±1 to 7 days).
Subjects were randomised into four treatment groups to receive LL-37 (one of three alternative strengths), or placebo.
Wound bed preparation prior to treatment included debridement of non-viable tissue, treatment of clinical infection and selection of the most appropriate dressing (see below). The wound was cleaned using tap water, gently dried with a gauze pad and, if necessary, curettage was applied prior to application of the trial product or placebo.
0.7 mL of a sterile concentrate of LL-37 in water at concentrations of 2.5, 8 or 16 mg of LL-37 per mL was provided in sealed glass vials (APL, Umeå, Sweden), which were stored prior to the trial at between 2 and 8° C. Immediately before application to the wound, this was diluted with […] of a viscous diluent solution comprising 13.1% (w/w) of polyvinyl alcohol in acetate buffered saline (APL AB) to give final concentrations of either 0.5, 1.6 or 3.2 mg/mL, respectively. Placebo comprised exactly the same solution, but without LL-37 present.
The diluted viscous liquid solution of active treatment or placebo was applied topically at an amount of 25 μL/cm^2 with a 1 mL graded syringe at the centre of the cleansed and dried ulcer, and distributed evenly over the entire ulcer area using the rounded head of the syringe plunger that had been used in mixing the study drug.
After a 5-minute wait (to prevent LL-37 or placebo from being absorbed by the dressing material), the above procedure was followed by application of a dressing and a compression bandage.
The above procedure was repeated every third day (±1) over a 4 week treatment period, not more than two times per week, representing a total of eight applications.
The study assessed the rate of wound healing, pain at wound site both at the time of dressing and over the previous 24 hours using Visual Analogue Scale (VAS). […]

[2] = system: acute wounds of diabetic mice; conditions: cited from earlier work
wound healing = conditions: topical treatment; mice treated with a corticosteroid; Ramos et al 2011; cited from earlier work
angiogenesis = conditions: synthetic LL-37, subcutaneous injection; Koczulla et al 2003; cited from earlier work

Substance: LL-37
- effect on inflammatory cells (acute wounds): attracts inflammatory cells to the surrounding tissue
- wound healing response (conclusion) ([1]; LL-37 0.5 mg/mL (13 μg per cm^2 of wound area) every third day): marked and significant improvement in wound healing
- Estimated healing rate constant (cm^2/day) Mean (95% C.I.) ([1]; LL-37 0.5 mg/mL): 0.039 cm^2/day
- broken stick analysis: reduction in wound area after randomisation versus run-in ([1]; LL-37 0.5 mg/mL, p<0.001, FIG. 1): statistically significant improved healing
- wound healing response (conclusion) ([1]; LL-37 1.6 mg/mL (40 μg per cm^2 of wound area) every third day): marked and significant improvement in wound healing
- Estimated healing rate constant (cm^2/day) Mean (95% C.I.) ([1]; LL-37 1.6 mg/mL): 0.019 cm^2/day
- mean reduction in wound area ([1]; LL-37 1.6 mg/mL, from randomization to the end of the study): 5.29 cm^2
- broken stick analysis: reduction in wound area after randomisation versus run-in ([1]; LL-37 1.6 mg/mL, p=0.011, FIG. 1): statistically significant improved healing
- clinical benefit in chronic ulcers ([1]; LL-37 3.2 mg/mL, 80 μg/cm^2 every third day (26.7 μg/cm^2 for each day)): do not effectively treat chronic ulcers; also recorded: no clinical benefit
- Estimated healing rate constant (cm^2/day) Mean (95% C.I.) ([1]; LL-37 3.2 mg/mL): 0.004 cm^2/day
- Wound Area (cm^2), Mean ± S.D ([1]; Visit 1 (Screening), before treatment, LL-37 0.5 mg/mL group (N = 8)): 4.59 ± 2.024 cm^2
- Wound Area (cm^2), Mean ± S.D ([1]; Visit 1 (Screening), before treatment, LL-37 1.6 mg/mL group (N = 9)): 7.84 ± 4.789 cm^2
- Wound Area (cm^2), Mean ± S.D ([1]; Visit 1 (Screening), before treatment, LL-37 3.2 mg/mL group (N = 8)): 8.41 ± 6.450 cm^2
- Wound Area (cm^2), Mean ± S.D ([1]; Visit 3 (placebo run-in), LL-37 0.5 mg/mL group (N = 8)): 4.39 ± 1.995 cm^2
- Wound Area (cm^2), Mean ± S.D ([1]; Visit 3 (placebo run-in), LL-37 1.6 mg/mL group (N = 9)): 8.14 ± 4.997 cm^2
- Wound Area (cm^2), Mean ± S.D ([1]; Visit 3 (placebo run-in), LL-37 3.2 mg/mL group (N = 8)): 7.83 ± 6.163 cm^2
- Wound Area (cm^2), Mean ± S.D ([1]; Visit 6 (Randomisation), baseline, LL-37 0.5 mg/mL group (N = 8)): 5.11 ± 1.732 cm^2
- Wound Area (cm^2), Mean ± S.D ([1]; Visit 6 (Randomisation), baseline, LL-37 1.6 mg/mL group (N = 9)): 7.69 ± 4.072 cm^2
- Wound Area (cm^2), Mean ± S.D ([1]; Visit 6 (Randomisation), baseline, LL-37 3.2 mg/mL group (N = 8)): 8.50 ± 6.919 cm^2
- Wound Area (cm^2), Mean ± S.D ([1]; Visit 8, LL-37 0.5 mg/mL (N = 8)): 3.89 ± 1.329 cm^2
- Wound Area (cm^2), Mean ± S.D ([1]; Visit 8, LL-37 1.6 mg/mL (N = 9)): 5.83 ± 2.156 cm^2
- Wound Area (cm^2), Mean ± S.D ([1]; Visit 8, LL-37 3.2 mg/mL (N = 8)): 7.95 ± 6.270 cm^2
- Wound Area (cm^2), Mean ± S.D ([1]; Visit 10, LL-37 0.5 mg/mL (N = 8)): 3.18 ± 1.549 cm^2
- Wound Area (cm^2), Mean ± S.D ([1]; Visit 10, LL-37 1.6 mg/mL (N = 9)): 5.34 ± 1.943 cm^2
- Wound Area (cm^2), Mean ± S.D ([1]; Visit 10, LL-37 3.2 mg/mL (N = 8)): 7.03 ± 5.063 cm^2
- Wound Area (cm^2), Mean ± S.D ([1]; Visit 12, LL-37 0.5 mg/mL (N = 8)): 2.26 ± 1.061 cm^2
- Wound Area (cm^2), Mean ± S.D ([1]; Visit 12, LL-37 1.6 mg/mL (N = 9)): 4.59 ± 2.266 cm^2
- Wound Area (cm^2), Mean ± S.D ([1]; Visit 12, LL-37 3.2 mg/mL (N = 8)): 5.93 ± 5.317 cm^2
- Wound Area (cm^2), Mean ± S.D ([1]; Visit 14, LL-37 0.5 mg/mL (N = 8)): 1.93 ± 1.262 cm^2
- Wound Area (cm^2), Mean ± S.D ([1]; Visit 14, LL-37 1.6 mg/mL (N = 9)): 3.86 ± 3.029 cm^2
- Wound Area (cm^2), Mean ± S.D ([1]; Visit 14, LL-37 3.2 mg/mL (N = 8)): 5.89 ± 4.784 cm^2
- Wound Area (cm^2), Mean ± S.D ([1]; Visit 15 (End of Treatment), LL-37 0.5 mg/mL (N = 8)): 1.98 ± 1.276 cm^2
- Wound Area (cm^2), Mean ± S.D ([1]; Visit 15 (End of Treatment), LL-37 1.6 mg/mL (N = 9)): 3.34 ± 3.166 cm^2
- Wound Area (cm^2), Mean ± S.D ([1]; Visit 15 (End of Treatment), LL-37 3.2 mg/mL (N = 8)): 5.85 ± 4.648 cm^2
- Wound Area (cm^2), Mean ± S.D ([1]; Visit 16 (End of Study, follow-up approx. 4 weeks after last treatment), LL-37 0.5 mg/mL (N = 8)): 1.33 ± 1.209 cm^2
- Wound Area (cm^2), Mean ± S.D ([1]; Visit 16 (End of Study, follow-up approx. 4 weeks after last treatment), LL-37 1.6 mg/mL (N = 9)): 2.40 ± 3.269 cm^2
- Wound Area (cm^2), Mean ± S.D ([1]; Visit 16 (End of Study, follow-up approx. 4 weeks after last treatment), LL-37 3.2 mg/mL (N = 8)): 6.19 ± 4.770 cm^2
- difference of estimated healing rate versus the placebo group ([1]; highest dose, LL-37 3.2 mg/mL): no statistically significant difference
- broken stick analysis: post-randomisation rate versus run-in ([1]; highest dose, LL-37 3.2 mg/mL, FIG. 1): No significant difference
- difference of healing rate constant (exponential decay model) versus the placebo group ([1]; intermediate dose, LL-37 1.6 mg/mL, p=0.088): 3 fold
- difference of healing rate constant (exponential decay model) versus the placebo group ([1]; lowest dose, LL-37 0.5 mg/mL, p=0.003): 6 fold
- effect in acute wounds of diabetic mice ([2]; one study, Carretero et al 2008): beneficial effect
- effect in acute wounds of diabetic mice ([2]; other studies, Steinstraesser et al 2012): failed to show an effect
- effect on wound healing (wound healing): stimulated wound healing
- effect on angiogenesis (angiogenesis): stimulates angiogenesis

From patent publication US10226508B2, “Treatment of chronic ulcers” (Promore Pharma AB, priority 2013, dated 2019)
